We go through two molecules from patent US20120225118A1, “COMPOSITIONS FOR DELIVERY OF INSOLUBLE AGENTS” (Latitude Pharmaceuticals Incorporated, priority 2009, published 2012).

The conditions of data set [1]: 25° C., cited from earlier work.
Data set [2] in a line: Solubility in aqueous 0.2% SDS. The class given is physicochemical. Particulars: 37 °C, aqueous with cosolvent or surfactant or cyclodextrin, thermodynamic from solid. As to the method: About 5.5 mg itraconazole or an amount of the preparations obtained according to Example 3 containing 5.5 mg itraconazole was placed in 500 mL aqueous solution of 0.2% SDS. The mixture was stirred at 37° C. for 24 hours. About 5 mL of the solution was taken and filtered through a 0.45 μm filter. The filtrate was analyzed by HPLC for concentration of itraconazole.

Values after ≈ are worked out from the molar mass of the structure shown. Where two headings read alike, the source gives them in different places.

Consider `CC(=O)Oc1ccccc1C(=O)O` [aspirin], for which the “volume of solvent required to dissolve 1 gram” value was 5 mL in data set [1] (ethanol) and 300 mL in data set [1] (water).
On to `CCC(C)n1ncn(-c2ccc(N3CCN(c4ccc(OCC5COC(Cn6cncn6)(c6ccc(Cl)cc6Cl)O5)cc4)CC3)cc2)c1=O` (stereo not drawn) [itraconazole], for which, in data set [2], the solubility at 24 h was 6.44 ± 0.08 µg/mL (≈ 9.13 µM).

In general, solubility refers to the concentration that dissolves in the medium under given conditions. Read a low solubility as a poorly soluble substance.
